Experimental data as given in ChEMBL document CHEMBL4257227, “Deubiquitinase inhibitors and methods for use of the same” (2016).
The source made the active and inactive calls.

Legend:
[1] = Plasma concentration in Balb/c mouse at 30 mg/kg, po after 7 hrs by LC-MS analysis; type: ADME, organism-based
[2] = tested on: La Crosse virus; assay: Antiviral activity against La Crosse virus virus infected in human Be2-c cells assessed as reduction in viral plaque forming units; type: functional, organism-based
[3] = molecular target: Ubiquitin carboxyl-terminal hydrolase 9X (Homo sapiens) (UniProt Q93008); assay: Inhibition of Usp9x in human MM1.S cells assessed as reduction in MCL-1 protein levels at 5 uM incubated for 5 to 240 mins by SDS-PAGE and immunoblotting; type: cell-based
[4] = Plasma concentration in Balb/c mouse at 10 mg/kg, iv after 2 hrs by LC-MS analysis; type: ADME, organism-based
[5] = tested on: NCI-H929; assay: Induction of apoptosis in human NCI-H929 cells at 0.3125 to 5 uM incubated for 24 hrs by annexin V staining based flow cytometry; type: functional, cell-based
[6] = molecular target: Ubiquitin carboxyl-terminal hydrolase 9X (Homo sapiens) (UniProt Q93008); assay: Inhibition of USP9x in Vemurafenib resistant human A375 cells assessed as STAT3 phosphorylation
[7] = Plasma concentration in Balb/c mouse at 30 mg/kg, po after 2 hrs by LC-MS analysis; type: ADME, organism-based
[8] = tested on: Murine norovirus; assay: Antiviral activity against Murine norovirus infected in Balb/c bone marrow derived macrophages assessed as reduction in viral plaque forming units; type: functional, organism-based
[9] = tested on: A-375; assay: Induction of p53 protein expression in Vemurafenib resistant human A375 cells; type: functional, cell-based
[10] = tested on: Mus musculus; assay: Toxicity in human A375 cells xenografted NOD/SCID/gamma-2 knockout mouse assessed effect on body weight at 7.5 mg/kg, ip once per day for 8 days; type: functional, organism-based
[11] = molecular target: Ubiquitin carboxyl-terminal hydrolase 9X (Homo sapiens) (UniProt Q93008); assay: Inhibition of Usp9x in primary tumor cells from patient with plasma cell leukemia assessed as reduction in MCL-1 protein levels at 5 uM incubated for 30 to 240 mins by SDS-PAGE and immunoblotting; type: cell-based
[12] = tested on: Mus musculus; assay: Toxicity in human MM1S cells xenografted NOD/SCID/gamma-2 knockout mouse assessed effect on body weight at 15 to 20 mg/kg, ip once per day for 14 days; type: functional, organism-based
[13] = tested on: Murine norovirus; assay: Antiviral activity against Murine norovirus infected in mouse RAW264.7 cells assessed as reduction in viral plaque forming units; type: functional, organism-based
[14] = tested on: A-375; assay: Antitumor activity against human A375 cells xenografted in NOD/SCID/gamma-2 knockout mouse assessed as inhibition of tumor growth at 7.5 to 15 mg/kg, ip once per day for 8 days followed by drug cessation and measured 10 days after drug cessation; type: functional, organism-based
[15] = molecular target: T1, Ubiquitin carboxyl-terminal hydrolase 5 (Homo sapiens) (UniProt P45974); assay: Inhibition of USP5 in Vemurafenib sensitive human A375 cells
T1 sequence (whole entry): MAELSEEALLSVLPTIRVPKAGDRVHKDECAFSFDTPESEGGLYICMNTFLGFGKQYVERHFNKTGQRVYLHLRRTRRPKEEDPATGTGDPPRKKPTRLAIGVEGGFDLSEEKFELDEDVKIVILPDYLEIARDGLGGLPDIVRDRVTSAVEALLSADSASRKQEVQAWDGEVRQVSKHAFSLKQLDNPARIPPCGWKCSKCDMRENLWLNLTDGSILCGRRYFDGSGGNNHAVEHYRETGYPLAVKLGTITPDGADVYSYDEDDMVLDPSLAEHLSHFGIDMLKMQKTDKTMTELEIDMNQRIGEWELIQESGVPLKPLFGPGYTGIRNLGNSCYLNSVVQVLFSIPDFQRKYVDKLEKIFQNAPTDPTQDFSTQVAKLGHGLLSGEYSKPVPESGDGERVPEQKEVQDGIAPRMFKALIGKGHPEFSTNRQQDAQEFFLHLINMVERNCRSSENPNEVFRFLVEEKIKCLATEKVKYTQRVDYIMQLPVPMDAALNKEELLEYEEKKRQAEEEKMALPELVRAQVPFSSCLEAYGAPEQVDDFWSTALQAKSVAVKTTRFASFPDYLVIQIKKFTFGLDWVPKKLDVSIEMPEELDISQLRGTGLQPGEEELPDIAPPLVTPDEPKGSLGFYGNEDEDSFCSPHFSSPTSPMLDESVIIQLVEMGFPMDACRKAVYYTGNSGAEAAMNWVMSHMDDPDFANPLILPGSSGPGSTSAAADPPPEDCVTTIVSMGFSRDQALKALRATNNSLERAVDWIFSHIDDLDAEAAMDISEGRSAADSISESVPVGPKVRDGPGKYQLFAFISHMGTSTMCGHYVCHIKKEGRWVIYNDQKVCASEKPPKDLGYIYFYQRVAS

[16] = tested on: A-375; assay: Antitumor activity against human A375 cells xenografted in NOD/SCID/gamma-2 knockout mouse assessed as inhibition of tumor growth at 7.5 to 15 mg/kg, ip once per day for 8 days; type: functional, organism-based
[17] = Plasma concentration in Balb/c mouse at 30 mg/kg, po after 0.5 hrs by LC-MS analysis; type: ADME, organism-based
[18] = molecular target: Ubiquitin carboxyl-terminal hydrolase 9X (Homo sapiens) (UniProt Q93008); assay: Inhibition of USP9x in Vemurafenib sensitive human A375 cells assessed as STAT3 phosphorylation
[19] = molecular target: T1, Ubiquitin carboxyl-terminal hydrolase 5 (Homo sapiens); assay: Inhibition of USP5 in Vemurafenib resistant human A375 cells
[20] = Plasma concentration in Balb/c mouse at 10 mg/kg, iv after 0.5 hrs by LC-MS analysis; type: ADME, organism-based
[21] = tested on: A375/R; assay: Induction of apoptosis in human A375R cells assessed as induction of caspase-8 activation; type: functional, cell-based
[22] = tested on: Tulane virus; assay: Antiviral activity against Tulane virus infected in […] LLC-MK cells assessed as reduction in viral plaque forming units; type: functional, organism-based
[23] = tested on: Mus musculus; assay: Toxicity in human MM1S cells xenografted NOD/SCID/gamma-2 knockout mouse assessed effect on body weight at 2.5 to 10 mg/kg, ip once per day for 14 days; type: functional, organism-based
[24] = molecular target: Ubiquitin carboxyl-terminal hydrolase 9X (Homo sapiens) (UniProt Q93008); assay: Inhibition of USP9x in Vemurafenib resistant human A375 cells
[25] = tested on: Sindbis virus; assay: Antiviral activity against Sindbis virus infected in African green monkey Vero cells assessed as reduction in viral plaque forming units; type: functional, organism-based

Chain of Ubiquitin carboxyl-terminal hydrolase 9X (Homo sapiens) (Q93008 whole entry): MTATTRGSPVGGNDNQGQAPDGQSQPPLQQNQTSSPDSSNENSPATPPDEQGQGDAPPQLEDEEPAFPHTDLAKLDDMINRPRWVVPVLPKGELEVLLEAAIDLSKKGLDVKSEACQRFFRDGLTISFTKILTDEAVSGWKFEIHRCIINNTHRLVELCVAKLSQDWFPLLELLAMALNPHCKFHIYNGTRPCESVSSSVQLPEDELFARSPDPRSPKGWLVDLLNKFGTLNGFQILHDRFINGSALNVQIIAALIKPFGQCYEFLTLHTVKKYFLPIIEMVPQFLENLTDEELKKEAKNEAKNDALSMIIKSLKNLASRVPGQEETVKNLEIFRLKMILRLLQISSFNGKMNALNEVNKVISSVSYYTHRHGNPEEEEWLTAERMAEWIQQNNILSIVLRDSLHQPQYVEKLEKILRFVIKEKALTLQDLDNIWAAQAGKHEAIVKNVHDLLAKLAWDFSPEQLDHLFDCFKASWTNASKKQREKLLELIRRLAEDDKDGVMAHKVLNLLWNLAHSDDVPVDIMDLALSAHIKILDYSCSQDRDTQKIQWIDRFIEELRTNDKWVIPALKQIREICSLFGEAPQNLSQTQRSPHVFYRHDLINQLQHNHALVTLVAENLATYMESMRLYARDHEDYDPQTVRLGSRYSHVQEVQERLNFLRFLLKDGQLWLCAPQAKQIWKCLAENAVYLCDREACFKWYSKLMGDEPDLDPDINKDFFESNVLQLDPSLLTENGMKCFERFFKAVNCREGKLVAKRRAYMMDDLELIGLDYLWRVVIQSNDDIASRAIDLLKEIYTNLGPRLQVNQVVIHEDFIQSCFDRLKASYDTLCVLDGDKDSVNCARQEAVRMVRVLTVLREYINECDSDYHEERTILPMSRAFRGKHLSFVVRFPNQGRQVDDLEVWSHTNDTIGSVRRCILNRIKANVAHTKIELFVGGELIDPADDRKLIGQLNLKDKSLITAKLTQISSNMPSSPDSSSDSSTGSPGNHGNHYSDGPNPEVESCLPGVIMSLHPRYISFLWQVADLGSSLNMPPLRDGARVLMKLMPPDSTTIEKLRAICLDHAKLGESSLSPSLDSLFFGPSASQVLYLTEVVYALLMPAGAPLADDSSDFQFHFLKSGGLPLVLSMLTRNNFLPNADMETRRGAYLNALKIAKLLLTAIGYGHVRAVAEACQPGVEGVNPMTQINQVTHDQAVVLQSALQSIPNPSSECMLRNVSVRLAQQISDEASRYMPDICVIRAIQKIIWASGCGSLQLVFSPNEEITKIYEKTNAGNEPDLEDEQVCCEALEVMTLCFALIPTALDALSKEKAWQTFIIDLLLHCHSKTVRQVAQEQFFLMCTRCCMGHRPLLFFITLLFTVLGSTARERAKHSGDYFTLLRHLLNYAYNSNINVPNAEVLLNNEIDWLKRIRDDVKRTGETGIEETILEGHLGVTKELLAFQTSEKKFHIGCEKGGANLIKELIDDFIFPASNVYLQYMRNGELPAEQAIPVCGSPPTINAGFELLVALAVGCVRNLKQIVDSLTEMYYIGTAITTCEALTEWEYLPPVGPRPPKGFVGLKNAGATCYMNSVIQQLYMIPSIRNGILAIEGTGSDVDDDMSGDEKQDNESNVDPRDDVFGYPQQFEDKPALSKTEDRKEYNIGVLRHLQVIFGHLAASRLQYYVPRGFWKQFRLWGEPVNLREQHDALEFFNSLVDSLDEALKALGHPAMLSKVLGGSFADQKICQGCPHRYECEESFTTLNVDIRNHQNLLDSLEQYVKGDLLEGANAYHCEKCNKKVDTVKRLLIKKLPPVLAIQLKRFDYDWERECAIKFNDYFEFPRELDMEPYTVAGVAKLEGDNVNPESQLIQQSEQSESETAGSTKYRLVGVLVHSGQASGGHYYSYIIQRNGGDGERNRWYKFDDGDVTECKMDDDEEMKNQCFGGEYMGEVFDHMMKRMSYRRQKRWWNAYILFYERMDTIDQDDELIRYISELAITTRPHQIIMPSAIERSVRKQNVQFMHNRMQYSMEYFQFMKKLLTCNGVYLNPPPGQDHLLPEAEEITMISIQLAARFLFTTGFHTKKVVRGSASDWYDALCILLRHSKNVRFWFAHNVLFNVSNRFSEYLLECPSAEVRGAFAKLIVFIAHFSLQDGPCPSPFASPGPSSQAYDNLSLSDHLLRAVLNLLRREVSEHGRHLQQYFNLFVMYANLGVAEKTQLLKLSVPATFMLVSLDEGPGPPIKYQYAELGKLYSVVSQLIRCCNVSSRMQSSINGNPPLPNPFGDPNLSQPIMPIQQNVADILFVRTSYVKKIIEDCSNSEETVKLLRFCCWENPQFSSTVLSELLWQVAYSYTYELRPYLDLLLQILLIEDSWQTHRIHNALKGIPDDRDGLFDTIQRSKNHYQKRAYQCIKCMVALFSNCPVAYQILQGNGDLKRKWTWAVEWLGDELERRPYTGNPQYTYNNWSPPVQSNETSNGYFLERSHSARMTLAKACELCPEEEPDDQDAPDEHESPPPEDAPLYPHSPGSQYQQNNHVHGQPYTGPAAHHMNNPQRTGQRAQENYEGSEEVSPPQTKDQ

CCCC(NC(=O)/C(C#N)=C/c1nc(Cl)ccc1Cl)c1ccc(OCCN2CCOCC2)cc1 (stereo not given)
60.8 to 78.7 ng/mL: concentration at 0.5 h [17]
35.8 to 59 ng/mL: concentration at 2 h [7]
inactive: Activity [9] | Activity [10] Not toxic | TGI [14] | Activity [23] Not toxic
active: Activity [2] | inhibition [3] | Activity [5] | inhibition [6] | Activity [8] | inhibition [11] | Activity [12] Toxic | Activity [13] | inhibition [15] | TGI [16] | inhibition [18] | inhibition [19] | Activity [21] | Activity [22] | inhibition [24] | Activity [25]
395 to 520 ng/mL: concentration at 2 h [4]
1220 to 1880 ng/mL: concentration at 0.5 h [20]
16.1 to 37.6 ng/mL: concentration at 7 h [1]
